From patent publication US7563613B2, “Detoxification and decontamination using nanotechnology therapy” (University of Florida, priority 2001, dated 2009)
Values belong to the compound of their own block, whether it stands above or below them.

Key:
[1] = test system: guinea pig isolated hearts; assay: bupivacaine-induced QRS prolongation in isolated hearts (FIG. 8); settings: bupivacaine (1 μM); isolated hearts paced at 200 BPM
[2] = cited from earlier work
[3] = at toxic plasma concentration; cited from earlier work

QRS prolongation [1]: induces QRS prolongation
Structure (SMILES): CCCCN1CCCCC1C(=O)Nc1c(C)cccc1C (stereo not shown) [Bupivacaine, bupivacaine]

Structure (SMILES): CN(C)CCC=C1c2ccccc2CCc2ccccc21 [amitriptyline]
plasma concentration that begins to cause cardiac toxicity ([2]; in vivo): ~1,000 ng/ml | bound in plasma [3]: 94.8±0.8%

Structure (SMILES): C[C@H]1O[C@@H](O[C@H]2[C@@H](O)C[C@H](O[C@H]3[C@@H](O)C[C@H](O[C@H]4CC[C@@]5(C)[C@H](CC[C@@H]6[C@@H]5C[C@@H](O)[C@]5(C)[C@@H](C7=CC(=O)OC7)CC[C@]65O)C4)O[C@@H]3C)O[C@@H]2C)C[C@H](O)[C@@H]1O [digoxin]
concentration at which toxicity is caused ([2]; low concentrations): approximately 1 nM
